Values quoted from earlier work as cited in patent publication US6365216B1, “Particles of N-[N-(3,3-dimethylbutyl)-L-α-aspartyl]-L-phenylalanine 1-methyl ester” (The NutraSweet Company, priority 1999, dated 2002).

Conditions: times sweeter than sugar (sucrose)

SMILES: COC(=O)C(Cc1ccccc1)NC(=O)C(CC(=O)O)NCCC(C)(C)C [neotame, N-[N-(3,3-dimethylbutyl)-L-α-aspartyl]-L-phenylalanine 1-methyl ester]
- sweetness potency: about 8000 X
